According to ChEMBL document CHEMBL1909046, “DrugMatrix in vitro pharmacology data”:

What was measured:
Insulin receptor = Insulin receptor (Rattus norvegicus, UniProt P15127); assay type: cell membranes, Wistar, Liver, Membrane; also: in other assays of this panel Not Active means under 50% inhibition at 10 µM
[1] = molecular target: 5-hydroxytryptamine receptor 1B (Rattus norvegicus, UniProt P28564); assay type: cell membranes, Wistar, Cerebral cortex, Membrane; also: in other assays of this panel Not Active means under 50% inhibition at 10 µM
[2] = molecular target: T1, 5-hydroxytryptamine receptor 1A (Rattus norvegicus, UniProt P19327); assay type: cell membranes, CHO-K1, Membrane; details: for Ki: read-out: Ki; as to all read-outs here: in other assays of this panel Not Active means under 50% inhibition at 10 µM
T1 sequence (P19327 whole entry): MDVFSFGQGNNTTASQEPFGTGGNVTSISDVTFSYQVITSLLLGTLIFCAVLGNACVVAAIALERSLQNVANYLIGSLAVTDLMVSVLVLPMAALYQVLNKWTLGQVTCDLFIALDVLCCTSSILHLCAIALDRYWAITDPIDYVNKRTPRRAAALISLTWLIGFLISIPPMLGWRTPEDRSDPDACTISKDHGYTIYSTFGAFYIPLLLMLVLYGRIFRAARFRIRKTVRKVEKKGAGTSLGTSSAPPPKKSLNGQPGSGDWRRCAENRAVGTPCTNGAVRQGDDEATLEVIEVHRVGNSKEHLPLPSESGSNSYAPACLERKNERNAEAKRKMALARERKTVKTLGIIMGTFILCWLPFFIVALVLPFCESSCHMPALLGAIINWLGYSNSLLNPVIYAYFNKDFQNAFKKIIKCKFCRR

[3] = molecular target: T2, Angiotensin-converting enzyme (Oryctolagus cuniculus, UniProt P12822); assay type: tissue-based, Lung;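 also: enzymatic inhibition of angiotensin-converting enzyme measured with FAPGG as the substrate; in other assays of this panel Not Active means under 50% inhibition at 10 µM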
T2 sequence (P12822 whole entry): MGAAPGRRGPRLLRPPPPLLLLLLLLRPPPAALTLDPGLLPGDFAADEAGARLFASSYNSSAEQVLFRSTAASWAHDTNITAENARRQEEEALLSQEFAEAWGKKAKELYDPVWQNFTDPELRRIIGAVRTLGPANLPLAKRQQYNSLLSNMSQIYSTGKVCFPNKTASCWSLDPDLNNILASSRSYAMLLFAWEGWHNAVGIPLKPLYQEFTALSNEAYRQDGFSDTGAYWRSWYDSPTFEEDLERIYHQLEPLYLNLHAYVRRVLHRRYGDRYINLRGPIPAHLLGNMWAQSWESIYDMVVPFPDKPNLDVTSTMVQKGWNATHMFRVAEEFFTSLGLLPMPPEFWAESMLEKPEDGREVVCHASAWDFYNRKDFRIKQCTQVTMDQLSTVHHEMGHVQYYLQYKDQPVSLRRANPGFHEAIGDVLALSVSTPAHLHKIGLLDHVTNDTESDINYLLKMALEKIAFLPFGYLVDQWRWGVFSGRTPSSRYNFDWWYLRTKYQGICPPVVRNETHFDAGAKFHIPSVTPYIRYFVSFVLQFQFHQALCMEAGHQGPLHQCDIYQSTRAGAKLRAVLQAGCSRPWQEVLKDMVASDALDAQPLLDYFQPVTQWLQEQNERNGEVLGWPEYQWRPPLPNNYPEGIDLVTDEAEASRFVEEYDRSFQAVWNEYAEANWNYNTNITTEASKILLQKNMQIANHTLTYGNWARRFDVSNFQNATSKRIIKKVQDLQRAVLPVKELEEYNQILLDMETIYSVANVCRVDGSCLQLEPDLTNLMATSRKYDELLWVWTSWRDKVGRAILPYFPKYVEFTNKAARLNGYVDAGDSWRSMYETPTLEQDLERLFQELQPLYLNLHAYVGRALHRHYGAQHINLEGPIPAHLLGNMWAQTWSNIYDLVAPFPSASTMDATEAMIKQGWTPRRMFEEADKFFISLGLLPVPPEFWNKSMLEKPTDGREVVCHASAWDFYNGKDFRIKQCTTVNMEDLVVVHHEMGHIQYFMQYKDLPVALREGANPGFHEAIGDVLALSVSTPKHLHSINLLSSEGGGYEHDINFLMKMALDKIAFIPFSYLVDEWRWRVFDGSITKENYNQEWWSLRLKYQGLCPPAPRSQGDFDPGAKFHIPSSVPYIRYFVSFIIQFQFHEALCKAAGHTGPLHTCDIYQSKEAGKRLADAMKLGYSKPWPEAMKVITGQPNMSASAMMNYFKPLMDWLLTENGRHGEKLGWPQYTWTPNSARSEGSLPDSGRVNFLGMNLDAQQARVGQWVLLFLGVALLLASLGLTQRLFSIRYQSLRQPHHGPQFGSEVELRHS

Cytochrome P450 2A6 = molecular target: T3, Cytochrome P450 2A6 (Homo sapiens, UniProt P11509); details: bti-tn-5b1-4; also: in other assays of this panel Not Active means under 50% inhibition at 10 µM
T3 sequence (P11509 whole entry): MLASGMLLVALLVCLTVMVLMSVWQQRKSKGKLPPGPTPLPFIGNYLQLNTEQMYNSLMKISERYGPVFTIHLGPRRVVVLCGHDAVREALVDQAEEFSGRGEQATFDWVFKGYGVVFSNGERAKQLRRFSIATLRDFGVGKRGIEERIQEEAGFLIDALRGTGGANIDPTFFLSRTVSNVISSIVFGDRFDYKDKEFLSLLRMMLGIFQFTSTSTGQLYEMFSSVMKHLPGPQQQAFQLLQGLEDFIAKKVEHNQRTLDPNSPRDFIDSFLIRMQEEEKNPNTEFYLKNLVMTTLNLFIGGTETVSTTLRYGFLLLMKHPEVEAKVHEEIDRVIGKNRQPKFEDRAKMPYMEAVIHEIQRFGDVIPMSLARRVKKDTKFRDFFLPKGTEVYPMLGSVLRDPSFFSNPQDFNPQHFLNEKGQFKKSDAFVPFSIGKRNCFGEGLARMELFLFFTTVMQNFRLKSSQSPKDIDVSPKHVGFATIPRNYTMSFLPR

[4] = DRUGMATRIX: GABAA, Muscimol, Central radioligand binding (ligand: [3H] Muscimol); assay type: cell membranes, Rattus norvegicus, Wistar, Brain, Membrane; details: Not Active = under 50% inhibition at 10 µM
[5] = molecular target: T4, Neuropeptide Y receptor type 1 (Homo sapiens, UniProt P25929); assay type: cell membranes, Membrane; details: sk-n-mc; also: in other assays of this panel Not Active means under 50% inhibition at 10 µM
T4 sequence (P25929 whole entry): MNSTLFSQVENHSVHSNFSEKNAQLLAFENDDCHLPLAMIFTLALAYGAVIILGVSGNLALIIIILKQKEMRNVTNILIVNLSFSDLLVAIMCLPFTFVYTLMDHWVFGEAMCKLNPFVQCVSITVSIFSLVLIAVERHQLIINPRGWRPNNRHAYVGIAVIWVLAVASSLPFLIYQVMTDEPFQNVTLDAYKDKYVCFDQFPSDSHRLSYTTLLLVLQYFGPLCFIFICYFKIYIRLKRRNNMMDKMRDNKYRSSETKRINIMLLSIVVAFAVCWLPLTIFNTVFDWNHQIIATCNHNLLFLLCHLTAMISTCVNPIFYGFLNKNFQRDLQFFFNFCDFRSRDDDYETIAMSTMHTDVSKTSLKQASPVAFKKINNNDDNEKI

[6] = molecular target: Mitogen-activated protein kinase 3 (Homo sapiens, UniProt P27361); assay: DRUGMATRIX: Protein Serine/Threonine Kinase, ERK1 enzyme inhibition (substrate: Myelin Basic Protein); parameters: species or system Escherichia coli; details: Not Active = under 50% inhibition at 10 µM
Sequence of Mitogen-activated protein kinase 3 (P27361 whole entry): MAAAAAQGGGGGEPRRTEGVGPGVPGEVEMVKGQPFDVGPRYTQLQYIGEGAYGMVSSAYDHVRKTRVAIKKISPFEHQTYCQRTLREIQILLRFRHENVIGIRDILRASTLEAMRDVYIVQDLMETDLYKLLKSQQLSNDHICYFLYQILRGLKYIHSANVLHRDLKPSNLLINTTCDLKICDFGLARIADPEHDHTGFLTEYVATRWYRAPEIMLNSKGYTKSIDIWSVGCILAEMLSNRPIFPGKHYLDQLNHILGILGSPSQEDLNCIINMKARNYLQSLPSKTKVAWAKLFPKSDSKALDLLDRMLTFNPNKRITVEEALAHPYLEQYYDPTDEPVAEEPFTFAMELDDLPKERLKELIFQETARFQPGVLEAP

Sequence of Insulin receptor (P15127 27-759 limits assumed): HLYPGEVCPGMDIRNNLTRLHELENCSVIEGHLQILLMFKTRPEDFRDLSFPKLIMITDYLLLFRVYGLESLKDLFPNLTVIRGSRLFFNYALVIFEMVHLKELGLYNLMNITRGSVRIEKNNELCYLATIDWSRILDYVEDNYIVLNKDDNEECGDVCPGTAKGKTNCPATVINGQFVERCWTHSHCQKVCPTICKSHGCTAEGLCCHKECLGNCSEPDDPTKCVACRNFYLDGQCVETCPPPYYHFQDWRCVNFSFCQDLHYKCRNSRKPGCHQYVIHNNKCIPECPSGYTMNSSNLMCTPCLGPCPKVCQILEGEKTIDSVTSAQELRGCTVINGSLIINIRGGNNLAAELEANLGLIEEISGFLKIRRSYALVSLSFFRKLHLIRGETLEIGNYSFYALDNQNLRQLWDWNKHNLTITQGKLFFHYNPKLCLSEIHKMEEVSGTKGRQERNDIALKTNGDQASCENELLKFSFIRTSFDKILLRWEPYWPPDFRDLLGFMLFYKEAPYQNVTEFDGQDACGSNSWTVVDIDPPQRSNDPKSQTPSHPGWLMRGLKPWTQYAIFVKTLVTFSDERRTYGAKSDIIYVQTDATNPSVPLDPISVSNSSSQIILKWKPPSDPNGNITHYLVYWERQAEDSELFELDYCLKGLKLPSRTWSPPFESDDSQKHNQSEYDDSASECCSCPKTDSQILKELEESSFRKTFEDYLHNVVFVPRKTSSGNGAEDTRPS
Sequence of Insulin receptor (P15127 764-1383 limits assumed): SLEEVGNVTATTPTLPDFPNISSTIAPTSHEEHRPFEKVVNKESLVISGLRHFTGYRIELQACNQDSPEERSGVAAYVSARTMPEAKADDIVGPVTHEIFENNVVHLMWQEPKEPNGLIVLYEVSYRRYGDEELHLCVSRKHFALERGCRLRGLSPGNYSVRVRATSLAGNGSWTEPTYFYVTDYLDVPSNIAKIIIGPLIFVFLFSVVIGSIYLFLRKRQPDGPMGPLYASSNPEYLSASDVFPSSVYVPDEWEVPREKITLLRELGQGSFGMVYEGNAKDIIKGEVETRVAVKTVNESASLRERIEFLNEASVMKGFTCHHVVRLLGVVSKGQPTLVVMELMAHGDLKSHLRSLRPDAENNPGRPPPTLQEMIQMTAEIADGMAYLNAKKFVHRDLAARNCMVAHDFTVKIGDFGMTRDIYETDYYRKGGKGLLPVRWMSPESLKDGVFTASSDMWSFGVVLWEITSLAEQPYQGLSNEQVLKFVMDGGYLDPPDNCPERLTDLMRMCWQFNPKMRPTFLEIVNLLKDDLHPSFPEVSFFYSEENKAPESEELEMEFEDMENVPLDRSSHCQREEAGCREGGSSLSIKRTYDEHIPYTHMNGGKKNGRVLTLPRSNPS
Sequence of 5-hydroxytryptamine receptor 1B (P28564 whole entry): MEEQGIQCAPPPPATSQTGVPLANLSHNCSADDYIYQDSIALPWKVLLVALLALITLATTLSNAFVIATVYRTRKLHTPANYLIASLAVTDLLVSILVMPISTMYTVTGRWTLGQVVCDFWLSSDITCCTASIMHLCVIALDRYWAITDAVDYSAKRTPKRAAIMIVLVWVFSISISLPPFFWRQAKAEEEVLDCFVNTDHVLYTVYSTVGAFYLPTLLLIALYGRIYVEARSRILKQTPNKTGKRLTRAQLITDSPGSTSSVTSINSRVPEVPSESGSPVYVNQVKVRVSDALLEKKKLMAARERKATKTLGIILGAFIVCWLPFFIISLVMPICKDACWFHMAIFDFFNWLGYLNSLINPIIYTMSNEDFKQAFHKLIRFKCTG

C[C@H](CCC(=O)O)[C@H]1CC[C@H]2[C@@H]3[C@H](O)C[C@@H]4C[C@H](O)CC[C@]4(C)[C@H]3C[C@H](O)[C@]12C [CHOLIC ACID]
IC50 (Insulin receptor): Not Active
IC50 [1]: Not Active
IC50 ([2]; cho-k1): Not Active
IC50 [3]: Not Active
IC50 (Cytochrome P450 2A6): Not Active
Ki (Cytochrome P450 2A6): Not Active
IC50 [4]: Not Active
Ki [4]: Not Active
IC50 [5]: Not Active
IC50 [6]: Not Active

Cc1cc(C2CCCCC2)n(O)c(=O)c1 [CICLOPIROX]
IC50 (Insulin receptor): Not Active
IC50 [1]: Not Active
IC50 ([2]; cho-k1): Not Active
IC50 [3]: Not Active
IC50 (Cytochrome P450 2A6): Not Active
Ki (Cytochrome P450 2A6): Not Active
IC50 [4]: Not Active
Ki [4]: Not Active
IC50 [5]: Not Active
IC50 [6]: Not Active

CC1=C2C(=CO[C@H](C)[C@H]2C)C(O)=C(C(=O)O)C1=O [CITRININ]
IC50 (Insulin receptor): Not Active
IC50 [1]: Not Active
IC50 ([2]; cho-k1): Not Active
IC50 [3]: Not Active
IC50 (Cytochrome P450 2A6): Not Active
Ki (Cytochrome P450 2A6): Not Active
IC50 [4]: Not Active
Ki [4]: Not Active
IC50 [5]: Not Active
IC50 [6]: Not Active

CC(C)(C)NCC(O)c1cc(Cl)c(N)c(Cl)c1 (configuration not stated) [CLENBUTEROL]
IC50 (Insulin receptor): Not Active
IC50 [1]: Not Active
IC50 ([2]; read-out: IC50): 2650 nM
Ki [2]: 1520 nM
IC50 [3]: Not Active
IC50 (Cytochrome P450 2A6): Not Active
Ki (Cytochrome P450 2A6): Not Active
IC50 [4]: Not Active
Ki [4]: Not Active
IC50 [5]: Not Active
IC50 [6]: Not Active

CC(C)(Oc1ccc(Cl)cc1)C(=O)O [CLOFIBRIC ACID]
IC50 (Insulin receptor): Not Active
IC50 [1]: Not Active
IC50 ([2]; cho-k1): Not Active
IC50 [3]: Not Active
IC50 (Cytochrome P450 2A6): Not Active
Ki (Cytochrome P450 2A6): Not Active
IC50 [4]: Not Active
Ki [4]: Not Active
IC50 [5]: Not Active
IC50 [6]: Not Active

Clc1cccc(Cl)c1NC1=NCCN1 [CLONIDINE]
IC50 (Insulin receptor): Not Active
IC50 [1]: Not Active
IC50 ([2]; read-out: IC50): 5360 nM
Ki [2]: 3070 nM
IC50 [3]: Not Active
IC50 (Cytochrome P450 2A6): Not Active
Ki (Cytochrome P450 2A6): Not Active
IC50 [4]: Not Active
Ki [4]: Not Active
IC50 [5]: Not Active
IC50 [6]: Not Active

Cc1cc(C(C#N)c2ccc(Cl)cc2)c(Cl)cc1NC(=O)c1cc(I)cc(I)c1O (configuration not stated) [CLOSANTEL]
IC50 (Insulin receptor): Not Active
IC50 [1]: Not Active
IC50 ([2]; cho-k1): Not Active
IC50 [3]: Not Active
IC50 (Cytochrome P450 2A6): Not Active
Ki (Cytochrome P450 2A6): Not Active
IC50 [4]: Not Active
Ki [4]: Not Active
IC50 [5]: Not Active
IC50 [6]: Not Active
